Laboratory results as given in paper PMC11813358 (Journal of Microbiology and Biotechnology, 2024).
Residue numbers refer to the chain shown, from its start. Where “and” joins values, the source holds several entries; their conditions need not be identical. Equal values may be shown once. Entries after “also recorded” stand apart in the source; their conditions may differ. One block for each compound: values may come before it.

Columns and labels:
Type in all cases: cell-based
[1] = target: T1, double mutant (L260A + V264A) 5-HT3A receptor (Homo sapiens, UniProt P46098, L282A/V286A); experiment: Two-electrode voltage clamp of I5-HT in oocytes expressing double mutant (L260A/V264A) 5-HT3A receptor; settings: for Inhibitory effect of MDL 72222 on double mutant: 0.5 μM MDL 72222
T1 construct: expressed in transfected cells; host or cells: Xenopus laevis oocytes injected with cRNA
T1 sequence (P46098 24-478 L282A/V286A): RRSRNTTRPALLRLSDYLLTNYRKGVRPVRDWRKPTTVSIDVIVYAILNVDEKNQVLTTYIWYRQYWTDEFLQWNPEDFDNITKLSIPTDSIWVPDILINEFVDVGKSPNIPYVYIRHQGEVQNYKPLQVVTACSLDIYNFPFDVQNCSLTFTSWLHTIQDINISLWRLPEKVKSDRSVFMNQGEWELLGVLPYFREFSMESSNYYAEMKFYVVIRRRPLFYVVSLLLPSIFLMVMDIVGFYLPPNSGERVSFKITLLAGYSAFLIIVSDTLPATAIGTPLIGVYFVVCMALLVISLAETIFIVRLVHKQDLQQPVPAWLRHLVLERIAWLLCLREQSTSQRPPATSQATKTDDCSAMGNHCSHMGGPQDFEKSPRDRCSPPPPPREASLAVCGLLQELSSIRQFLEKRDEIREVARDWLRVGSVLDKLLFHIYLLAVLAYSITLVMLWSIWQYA
Experimental: (§1) The experimental procedure follows the approach outlined in the previous study, but is summarized briefly as follows. The plasmid containing the cDNAs for the 5-HT3A receptor was digested with Xho I restriction enzymes to linearize the cDNAs, which were then transcribed into cRNA using the Ambion mMESSAGE mMACHINE transcription kit with T7 RNA polymerase (Thermo Fisher Scientific Inc., USA). After transcription, the cRNA was dissolved in nuclease-free water, and its size and concentration were assessed via electrophoresis and spectrophotometry (DeNovix Inc., USA). The cRNA was aliquoted to a concentration of 1 μg/μl for storage at -80°C. Specific mutations were introduced into the 5-HT3A receptor using the QuickChange site-directed mutagenesis kit (Agilent Technologies Inc., USA) and PCR. The correctness of the mutations was verified by sequencing the final mutated DNA (CosmoGenetech Co., Republic of Korea).
(§2) The study utilized female Xenopus laevis frogs that were kept according to institutional protocols (CNU IACUC-YB-2016-07, July 2016), requiring a stable temperature of around 20°C and a 12-h light-dark cycle. Frog care adhered to standards from the Korean Xenopus Resource Center for Research (KXRCR000001). Anesthesia was induced by placing the frogs on ice, after which a small abdominal incision was made to extract oocytes, which were isolated using OR2 buffer (containing 82.5 mM NaCl, 2 mM KCl, 1 mM MgCl2, and 5 mM HEPES, pH 7.5) with collagenase. After rinsing with ND96 buffer (which includes 96 mM NaCl, 2 mM KCl, 1 mM MgCl2, 1.8 mM CaCl2, and 5 mM HEPES, pH 7.5), stage V-VI oocytes were selected and incubated at 18°C with ND96 incubation buffer containing sodium pyruvate and gentamicin for 2 to 3 days. Finally, 40 ng of 5HT3A cRNA was injected into each oocyte using a Nanoject automatic oocyte injector.
(§3) Two to three days post-RNA injection, the expression of the 5-HT3A protein in the oocytes was verified using a two-electrode oocyte clamp (OC-725C, Warner Instruments, LLC, USA). An agar bridge facilitated electrical connections, while ND96 buffer flowed continuously into the net chamber at 2 ml/min. Two glass microelectrodes filled with 3 M KCl (0.2 MΩ resistance) accessed the oocytes. To analyze the current-voltage relationship, voltages from −80 to +50 mV were applied, maintaining a holding potential of −80 mV. Current data were collected with a Digidata 1550 series device and analyzed using pCLAMP 10 software (Molecular Devices LLC, USA).
(§4) The Hill equation was used for graph fitting in OriginPro 7.0, as detailed below:
(§5) y = Vmin + (Vmax − Vmin) * [x]^n/([IC50]^n + [x]^n)
In this formula, Vmax and Vmin represent the highest and lowest current values, respectively. […]

[2] = target: T2, Human 5-hydroxytryptamine receptor 3A subtype (wild-type 5-HT3A receptor) (Homo sapiens, UniProt P46098); experiment: Two-electrode voltage clamp of 5-HT-induced inward current (I5-HT) in Xenopus oocytes expressing wild-type 5-HT3A receptor; settings: for Imax of 5-HT concentration-response: normalized to maximum 5-HT current
T2 construct: host or cells: Xenopus laevis oocytes injected with cRNA
T2 sequence (P46098 24-478): T1 sequence (P46098 24-478 L282A/V286A) with A259L, A263V
Experimental: as §1, §2, §3, §4, §5
In this formula, Vmax and Vmin represent the highest and lowest current values, respectively. […] The variable x signifies the concentration of these compounds, while n corresponds to the Hill coefficient.

[3] = target: T3, L260A mutant 5-HT3A receptor (Homo sapiens, UniProt P46098, L282A); experiment: Two-electrode voltage clamp of I5-HT in oocytes expressing L260A mutant 5-HT3A receptor; settings: 100 μM 5-HT
T3 construct: expressed in transfected cells; host or cells: Xenopus laevis oocytes injected with cRNA
T3 sequence (P46098 24-478 L282A): T1 sequence (P46098 24-478 L282A/V286A) with A263V
Experimental: as §1
as §2, with “Finally, 40 ng of 5HT3A cRNA was injected into each oocyte using a Nanoject automatic oocyte injector.” left out
(§6) Two to three days post-RNA injection, the expression of the 5-HT3A protein in the oocytes was verified using a two-electrode oocyte clamp (OC-725C, Warner Instruments, LLC, USA). […] Current data were collected with a Digidata 1550 series device and analyzed using pCLAMP 10 software (Molecular Devices LLC, USA). […]

[4] = target: T4, V264A mutant 5-HT3A receptor (Homo sapiens, UniProt P46098, V286A); experiment: Two-electrode voltage clamp of I5-HT in oocytes expressing V264A mutant 5-HT3A receptor; settings: 100 μM 5-HT
T4 construct: expressed in transfected cells; host or cells: Xenopus laevis oocytes injected with cRNA
T4 sequence (P46098 24-478 V286A): T1 sequence (P46098 24-478 L282A/V286A) with A259L
Experimental: as §1
as §2, with “Finally, 40 ng of 5HT3A cRNA was injected into each oocyte using a Nanoject automatic oocyte injector.” left out
as §6

[5] = 5-HT + 3 μM nicergoline, −80 mV
[6] = 5-HT + 30 μM nicergoline, −80 mV
[7] = wild type, co-treatment with 100 μM 5-HT, −80 mV
[8] = −80 mV, unit not printed in Table 3, taken

SMILES: CN1[C@@H]2CC[C@H]1C[C@@H](OC(=O)c1cc(Cl)cc(Cl)c1)C2 [MDL 72222]
Inhibitory effect of MDL 72222 on double mutant ([1]; double mutant (L260A/V264A)): strongly inhibited
Inhibitory effect of MDL 72222 on double mutant ([1]; double mutant (L260A/V264A), listed as MDL72222): remained unaffected

5-HT current when 5-HT applied immediately following nicergoline, % of the initial (baseline) current ([2]; 30 μM nicergoline applied alone, then 100 μM 5-HT at 0 sec washout): 56.2 ± 10.9%
Imax of 5-HT concentration-response [2, 5]: 70.6 ± 2.9
nH of 5-HT concentration-response [2, 5]: 1.3 ± 0.4
Imax of 5-HT concentration-response [2, 6]: 45.8 ± 8.6
nH of 5-HT concentration-response [2, 6]: 1.2 ± 0.3
Mode of antagonism versus 5-HT ([2]; 5-HT concentration-response in presence of 3 and 30 μM nicergoline): non-competitive
IC50 ([2]; wild type, co-treatment with 100 μM 5-HT, holding potential −80 mV): 7.7 ± 0.9 µM
Hill coefficient (nH) of inhibition [2, 7]: 1.4 ± 0.2
Maximum inhibition of I5-HT [2, 7]: 91.1 ± 3.4%
Maximum inhibition of I5-HT ([2]; wild type, co-treatment with 100 μM 5-HT, −80 mV, listed as Nicergoline): approximately 91%
nH [3]: 1.2 ± 0.3
Maximum inhibition of I5-HT ([3]; −80 mV): 51% and 51.9 ± 2.9%
IC50 [3, 8]: 57.4 ± 5.6 µM
nH [4]: 0.8 ± 0.2
Maximum inhibition of I5-HT ([4]; −80 mV): 24% and 24.1 ± 0.8%
IC50 [4, 8]: 54.7 ± 5 µM
Inhibitory effect of nicergoline on double mutant ([1]; 100 μM nicergoline, double mutant (L260A/V264A)): absent; also recorded: abolished
Maximum inhibition of I5-HT ([1]; L260A + V264A double mutant, 100 μM 5-HT, −80 mV): 2.7 ± 1.3%
SMILES: CO[C@]12C[C@@H](COC(=O)c3cncc(Br)c3)CN(C)[C@@H]1Cc1cn(C)c3cccc2c13 [nicergoline]

Imax of 5-HT concentration-response ([2]; Control, 5-HT alone, −80 mV): 101.5 ± 4.6
nH of 5-HT concentration-response ([2]; Control, 5-HT alone, −80 mV): 1.2 ± 0.1
SMILES: NCCc1c[nH]c2ccc(O)cc12 [serotonin, 5-hydroxytryptamine]
